In patent publication US8062671B2, “Oily skin preparation for external use” (Shiseido Co., Ltd., priority 2003, dated 2011):

target: urokinase (UK) (Homo sapiens, UniProt P00749); assay: Measuring method of UK blocking rate (S2444 substrate, absorbance 405 nm); assay type: biochemical; settings: ion concentration 100 ppm; Tris-HCl buffer pH7.5
Procedure: About the complex powder of this invention, zinc oxide elutes zinc ion and inactivates plasminogen activator. UK is a kind of plasminogen activator. Measuring method of UK blocking rate. […] Thereafter, 20 μL of 12% trichloroacetic acid solution is added to stop the reaction, and powder is filtered. Absorbance of the filtrate at 405 nm is measured to obtain UK activity in an assessment system and UK blocking rate of the sample is calculated.

Row | UK blocking rate (%) | SMILES
1 | 16% | [Al+3] [Al^3+]
2 | 0% | [Ca+2] [Ca^2+]
3 | 36% | [Cu+2] [Cu^2+]
4 | 45% | [Zr+4] [Zr^4+]
5 | 5% | [Ce+3] [Ce^3+]
6 | 0% | [K+] [K^+]
7 | 0% | [Mg+2] [Mg^2+]
8 | 0% | [Li+] [Li^+]
9 | 0% | [Mn+2] [Mn^2+]
10 | 52% | [Zn+2] [Zn^2+, zinc ion]
11 | 0% | [Na+] [Na^+]

Row | SMILES | UK blocking rate (%)
12 | [Ba+2] [Ba^2+] | 0%
13 | [Ni+2] [Ni^2+] | 30%
14 | [Co+2] [Co^2+] | 27%
